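Five compound concentrations were applied to cells in 96-well plates for 48 hours; endpoints were derived by simple linear interpolation of the resulting dose-response curve. GI50 marks 50% less growth.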 The source made the active and inactive calls. No stated cut-off is given here; in the data, active = GI50 up to about 1.1 µM and inactive = higher. Where a SMILES comes first, the peptide text is derived from it. [ ]: non-standard residue; d: D form. The star is where a group is joined. Phe(2-OMe) = COc1ccccc1C[CH](N)C(=O)O; Cbz = O=C(OCc1ccccc1)*; OBn = c1ccc(CO*)cc1
Assays:
Assay in all cases: NCI-60 cell line screen, 48 h
[1] = tested on: CAKI-1
[2] = tested on: HT-29
[3] = tested on: MCF7
[4] = tested on: NCI-H522
[5] = tested on: MDA-MB-435
[6] = tested on: SNB-19
[7] = tested on: OVCAR-4
[8] = tested on: SF-295
[9] = tested on: PC-3
[10] = tested on: SK-MEL-28
[11] = tested on: NCI-H23
[12] = tested on: DU-145
[13] = tested on: HOP-92
[14] = tested on: HCT-15
[15] = tested on: A498
[16] = tested on: RXF 393
[17] = tested on: M14
[18] = tested on: NCI-H460
[19] = tested on: OVCAR-3
[20] = tested on: NCI/ADR-RES

| SMILES | GI50 [1] | GI50 [2] | GI50 [3] | GI50 [4] | GI50 [5] | GI50 [6] | GI50 [7] | GI50 [8] | GI50 [9] | GI50 [10] | GI50 [11] | GI50 [12] | GI50 [13] | GI50 [14] | GI50 [15] | GI50 [16] | GI50 [17] | GI50 [18] | GI50 [19] | GI50 [20] |
| --- | --- | --- | --- | --- | --- | --- | --- | --- | --- | --- | --- | --- | --- | --- | --- | --- | --- | --- | --- | --- |
| CC1=C(C(=O)OC(C)(C)C)C(c2ccc([N+](=O)[O-])cc2)C(C(=O)OC(C)(C)C)=C(C)N1 | 28.9 µM (inactive) | 19.8 µM (inactive) | 16.6 µM (inactive) | 18.5 µM (inactive) | 27.9 µM (inactive) | 34.4 µM (inactive) | 20.7 µM (inactive) | 20.2 µM (inactive) | 26.7 µM (inactive) | 20.1 µM (inactive) | 19.6 µM (inactive) | 26.9 µM (inactive) | 15.4 µM (inactive) | 36.5 µM | 22.8 µM (inactive) | 19.3 µM (inactive) | 23.9 µM (inactive) | 22.2 µM (inactive) | 20.1 µM (inactive) |  |
| N#Cc1nc(-c2ccsc2)oc1N | > 100 µM (inactive) | > 100 µM (inactive) | > 100 µM (inactive) |  | > 100 µM (inactive) | > 100 µM (inactive) |  |  | > 100 µM (inactive) | > 100 µM (inactive) |  | > 100 µM (inactive) | > 100 µM (inactive) | > 100 µM | > 100 µM (inactive) | > 100 µM (inactive) | > 100 µM (inactive) |  |  |  |
| O=C1C2CC=CCC2C(=O)N1n1c(-c2ccccc2)n[nH]c1=O (centres undefined) | > 100 µM (inactive) | > 100 µM (inactive) | > 100 µM (inactive) | > 100 µM (inactive) | > 100 µM (inactive) | > 100 µM (inactive) | > 100 µM (inactive) | > 100 µM (inactive) | > 100 µM (inactive) |  | > 100 µM (inactive) |  | > 100 µM (inactive) | > 100 µM | > 100 µM (inactive) | > 100 µM (inactive) | > 100 µM (inactive) | > 100 µM (inactive) | > 100 µM (inactive) | > 100 µM (inactive) |
| O=C(Nc1ccccc1[N+](=O)[O-])/C(=N/Nc1cccc(Cl)c1)c1c(O)c2ccccc2oc1=O | > 100 µM (inactive) | > 100 µM (inactive) |  | 30.5 µM (inactive) |  | > 100 µM (inactive) | > 100 µM (inactive) | > 100 µM (inactive) |  | > 100 µM (inactive) | 24.9 µM (inactive) |  | 23.6 µM (inactive) | 58.1 µM | > 100 µM (inactive) | > 100 µM (inactive) | > 100 µM (inactive) | 38.5 µM (inactive) | 35.4 µM (inactive) |  |
| O=c1[nH]c(=O)n(C2CC(O)C(CO)O2)cc1C(F)(C(F)(F)F)C(F)(F)F (centres undefined) | > 100 µM (inactive) | > 100 µM (inactive) |  | 45.2 µM (inactive) |  | > 100 µM (inactive) | > 100 µM (inactive) | > 100 µM (inactive) |  | > 100 µM (inactive) | > 100 µM (inactive) |  | > 100 µM (inactive) | > 100 µM | > 100 µM (inactive) | > 100 µM (inactive) | > 100 µM (inactive) | > 100 µM (inactive) | > 100 µM (inactive) |  |
| CCOc1snc(C(Cl)(Cl)Cl)c1Cl | 12.3 µM (inactive) | 15.5 µM (inactive) | 25 µM (inactive) |  | 18.3 µM (inactive) | 6.75 µM (inactive) | 27.1 µM (inactive) | 21.9 µM (inactive) | 28.4 µM (inactive) | 25.5 µM (inactive) | 12 µM (inactive) | 16.6 µM (inactive) |  | 24.2 µM | 11.7 µM (inactive) | 13.6 µM (inactive) | 29 µM (inactive) | 26.9 µM (inactive) | 14.1 µM (inactive) |  |
| C[C@]12CCC(=O)C=C1CC[C@@H]1C2CC[C@]2(C)c3nn(-c4ccc(F)cc4)nc3CC12 (some centres undefined) | > 100 µM (inactive) | > 100 µM (inactive) | > 100 µM (inactive) | > 100 µM (inactive) | > 100 µM (inactive) | 43.6 µM (inactive) | 49.3 µM (inactive) | 69.8 µM (inactive) | > 100 µM (inactive) | > 100 µM (inactive) | > 100 µM (inactive) | > 100 µM (inactive) | 61.1 µM (inactive) |  | 49.8 µM (inactive) | 67.3 µM (inactive) | > 100 µM (inactive) | > 100 µM (inactive) | > 100 µM (inactive) |  |
| NC(=O)NNC(=O)NC12CC3CC(CC(C3)C1)C2 | > 100 µM (inactive) | > 100 µM (inactive) |  | > 100 µM (inactive) |  | > 100 µM (inactive) | > 100 µM (inactive) | > 100 µM (inactive) |  | > 100 µM (inactive) | > 100 µM (inactive) |  | > 100 µM (inactive) | > 100 µM | > 100 µM (inactive) | > 100 µM (inactive) | > 100 µM (inactive) | > 100 µM (inactive) | > 100 µM (inactive) |  |
| Cc1c2cnccc2nc2[nH]c3ccncc3c12 | 2.98 µM (inactive) | 5.6 µM (inactive) |  | 3.91 µM (inactive) | 6.46 µM (inactive) | 13.7 µM (inactive) | 11.7 µM (inactive) | 6.84 µM (inactive) | 4.56 µM (inactive) | 32.4 µM (inactive) | 1.44 µM (inactive) | 10.7 µM (inactive) | 3.78 µM (inactive) | 3.98 µM | 5.47 µM (inactive) |  | 4.5 µM (inactive) | 2.16 µM (inactive) | 10.4 µM (inactive) |  |
| CC(/C=C/C(=O)c1sc(C(N)=S)nc1C)=C\c1ccccc1 | 23.4 µM (inactive) | > 100 µM (inactive) |  | 81.8 µM (inactive) |  | 15.1 µM (inactive) | > 100 µM (inactive) | > 100 µM (inactive) |  | > 100 µM (inactive) | > 100 µM (inactive) |  | > 100 µM (inactive) | > 100 µM | > 100 µM (inactive) | > 100 µM (inactive) | > 100 µM (inactive) | 35.4 µM (inactive) | > 100 µM (inactive) |  |
| CC(C)(C)/N=N/C(C)(C)N=C=O | > 100 µM (inactive) | > 100 µM (inactive) |  | > 100 µM (inactive) |  | > 100 µM (inactive) | > 100 µM (inactive) | 60.1 µM (inactive) |  | > 100 µM (inactive) | > 100 µM (inactive) |  | > 100 µM (inactive) | > 100 µM | > 100 µM (inactive) | > 100 µM (inactive) | > 100 µM (inactive) | > 100 µM (inactive) | > 100 µM (inactive) |  |
| O=C(Cn1c2ccc(Br)cc2c2nc3ccccc3nc21)NC1CCCCC1 | > 100 µM (inactive) | > 100 µM (inactive) |  | > 100 µM (inactive) | > 100 µM (inactive) | > 100 µM (inactive) | > 100 µM (inactive) | > 100 µM (inactive) | > 100 µM (inactive) | 81.1 µM (inactive) | > 100 µM (inactive) | > 100 µM (inactive) | 51.1 µM (inactive) | > 100 µM | > 100 µM (inactive) | > 100 µM (inactive) | > 100 µM (inactive) | > 100 µM (inactive) | > 100 µM (inactive) | > 100 µM (inactive) |
| COc1cc2c(oc(=O)c3c4oc([Si](C)(C)C)cc4cc(OC)c23)c2cccc(O)c12 | > 100 µM (inactive) | > 100 µM (inactive) |  | > 100 µM (inactive) |  | > 100 µM (inactive) | > 100 µM (inactive) | > 100 µM (inactive) |  | > 100 µM (inactive) | > 100 µM (inactive) |  | > 100 µM (inactive) | > 100 µM | > 100 µM (inactive) | > 100 µM (inactive) | > 100 µM (inactive) | > 100 µM (inactive) | > 100 µM (inactive) |  |
| CNn1c(-c2ccc(C)cc2)n[nH]c1=O | > 100 µM (inactive) | > 100 µM (inactive) | > 100 µM (inactive) | > 100 µM (inactive) | > 100 µM (inactive) | > 100 µM (inactive) | > 100 µM (inactive) | > 100 µM (inactive) | > 100 µM (inactive) |  | > 100 µM (inactive) |  | > 100 µM (inactive) | > 100 µM | > 100 µM (inactive) | > 100 µM (inactive) | > 100 µM (inactive) | > 100 µM (inactive) | > 100 µM (inactive) | > 100 µM (inactive) |
| NS(=O)(=O)c1nnc(NS(=O)(=O)c2ccccc2C(=O)O)s1 | > 100 µM (inactive) | > 100 µM (inactive) | > 100 µM (inactive) | > 100 µM (inactive) | > 100 µM (inactive) | > 100 µM (inactive) | > 100 µM (inactive) | > 100 µM (inactive) |  | > 100 µM (inactive) | > 100 µM (inactive) | > 100 µM (inactive) | > 100 µM (inactive) | > 100 µM | > 100 µM (inactive) | > 100 µM (inactive) | > 100 µM (inactive) | > 100 µM (inactive) | > 100 µM (inactive) | > 100 µM (inactive) |
| O=C1Cc2c([nH]c3ccccc23)-c2cc(Br)ccc2N1 | > 100 µM (inactive) | > 100 µM (inactive) |  | > 100 µM (inactive) |  | > 100 µM (inactive) | > 100 µM (inactive) | > 100 µM (inactive) |  | > 100 µM (inactive) | > 100 µM (inactive) |  | > 100 µM (inactive) | > 100 µM | > 100 µM (inactive) | > 100 µM (inactive) | > 100 µM (inactive) | > 100 µM (inactive) | > 100 µM (inactive) |  |
| COC(=O)C(Cc1ccccc1OC)NC(=O)C(CC(=O)OCc1ccccc1)NC(=O)OCc1ccccc1 (centres undefined) (Cbz-Asp(OBn)-[Phe(2-OMe)]-OMe; configuration not given here) |  | 65.3 µM (inactive) | 54 µM (inactive) |  |  | > 100 µM (inactive) |  |  | 60 µM (inactive) | 38.6 µM (inactive) | > 100 µM (inactive) |  | > 100 µM (inactive) |  | 88.1 µM (inactive) | 70.8 µM (inactive) | > 100 µM (inactive) | 34.4 µM (inactive) |  |  |

Source: ChEMBL document CHEMBL1201862, “PubChem BioAssay data set” (2004)
